Assay results: patent publication US7659278B2, “Use of low molecular weight compounds for preparing a medicament useful in treating mutant p53 mediated diseases” (Aprea AB, priority 2002, dated 2010)

Tests used:
Saos-2-His-273 cell line = test: Library screening / WST-1 growth suppression and growth curves, Saos-2-His-273; format: cell-based, human; conditions: for growth suppression: with vs without mutant p53 expression, WST-1
Description: In contrast, the effect of treatment on Saos-2 cells lacking p53 expression was rather minor. […] The degree of WST-1 reduction, which reflects a number of living cells, was measured by microplate reader at λ490 nm according to manufacturer (Roche). The growth suppression was calculated as a difference in absorbance at λ 490 nm between untreated and treated cells and expressed in a percent from untreated control. Growth suppression=100%×(control absorbance−treated absorbance)/control absorbance. […] The experimental set up was as described in FIG. 2A. The differences in a viability were statistically significant according to an independent t-test.
(§1) Saos-2-His-273 cell line stably transfected with construct allowing expression of mutant His-273 p53 in a tetracycline-dependent manner was used for screening (Selivanova et al., 1997). p53 expression was inhibited by incubation of cells with doxycycline (5 μg/ml). Cells were grown in 96-well plates at a density of 3000 cells per well with or without doxycycline and treated with 25 μM of the compounds from the NCI library of low molecular weight (LMW) compounds. After 48 hours of incubation the proliferative cell reagent WST-1 (Roche) was added to the cells. The degree of WST-1 reduction, which reflects cell viability, was measured by microplate reader at λ490 nm according to the manufacturer (Roche).
as §1, with “1997).” for “1997). p53 expression was inhibited by incubation of cells with doxycycline (5 μg/ml).”, “doxycycline. The treatment was done at a concentration of” for “doxycycline and treated with”, “each chemical” for “the compounds”, “is proportional to the” for “reflects”, “by a” for “by”, “λ 490=n” for “λ490 nm”

Saos-2 cells lacking p53 = test: Colony formation assay, Saos-2 lacking p53; format: cell-based, human; conditions: 5 μM, colonies counted after 14 days
From the text: Colonies were stained with Giemsa and counted 14 days after seeding.
The cells were Giemsa stained and scored for the appearance of colonies after 14 days.

[1] = biological target: T1, GST-wild type p53 protein (Homo sapiens, UniProt P04637); test: ELISA of p53 conformation epitopes (PAb1620, PAb240, DO-1), recombinant protein; format: biochemical; conditions: for appearance of PAb240 epitope (unfolding) upon heating: heating at 37° C.; for preservation of PAb 1620 epitope upon heating: recombinant wild type and mutant p53 proteins, 30 min at 37° C.
T1 construct: made in house
Description: Absorbance of the control sample incubated on ice was taken as 100%.
The procedure was performed with or without tested compounds. The ELISA analyses were done as described by (Foster et al., 1999). Briefly, after the treatment, samples were diluted with coating buffer (150 mM KCL, 25 mM HEPES) supplemented with 10 mM DTT. The whole mixture was apply to ELISA plates (MaxiSorp, Nunc) and incubated at +4° C. for 35 min. The wells were washed with coating buffer. The wells were blocked by 5% skim milk in PBS by incubating at +4° C. for 1 h. Wells were rinsed twice with PBS followed by addition of mouse primary antibodies (PAb 1620 or PAb 240) diluted 1:250 in coating buffer. Samples were incubated at +4° C. for 30 min. Wells were rinsed twice with PBS. After that, a secondary antibody (anti-mouse, conjugated with horse radish peroxidase) was incubated with samples at +4° C. for 30 min. Then plates were washed 5 times with PBS and a peroxidase substrate was added. An absorbance at λ405 nm was monitored by ELISA reader.

[2] = system: p21 and MDM2 in H1299-His-175 cells; test: Western blot of p53 target genes p21 and MDM2, H1299-His-175; format: cell-based, human
[3] = biological target: T2, GST-His-175 mutant p53 protein (Homo sapiens, UniProt P04637, R175H); test: Band shift assay, GST-His-175 mutant p53; format: biochemical
T2 construct: made in house
Description: (§2) PAb421 antibody was added to all reaction mixtures. […] Monoclonal antibody PAb421 was added to the reaction mixtures in lanes 2-8; PAb1801 was added to the reaction mixtures in lanes 9-15.
(§3) The GST-p53 proteins were prepared as described (Selivanova et al., 1997). Band shift assays were performed in binding buffer containing 100 mM HEPES pH 7.5, 50 mM KCl, 1 mg/ml BSA, 0.1% Triton X-100, 2 mM MgC12 and 1 mM DTT essentially as in (Selivanova et al., 1996).

[4] = system: MDM2 and p21 in HCT 116 colon carcinoma cells (wild type p53); test: Western blot of MDM2 and p21, HCT 116; format: cell-based, human
[5] = biological target: T3, endogenous mutant p53 proteins (Homo sapiens, UniProt P04637, C176F); format: biochemical; conditions: KRC/Y cell extract
T3 construct: cellular extracts of human tumor cell lines carrying different p53 mutants as a source for endogenous p53 protein; endogenous in cells; host or cells: human tumour cell lines (e.g. Burkitt lymphoma BL-60; KRC/Y renal carcinoma)
Description: as §2, §3

[6] = biological target: T4, endogenous mutant p53 proteins (Homo sapiens, UniProt P04637, R282W); format: biochemical; conditions: cell extracts from Burkitt lymphoma BL-60 cells
T4 construct: cellular extracts of human tumor cell lines carrying different p53 mutants as a source for endogenous p53 protein; endogenous in cells; host or cells: human tumour cell lines (e.g. Burkitt lymphoma BL-60; KRC/Y renal carcinoma)
Description: as §2, §3

[7] = system: Saos-2-His-273 human tumour xenografts; test: Anti-tumour activity, Saos-2-His-273 xenograft in SCID mice; format: in vivo; conditions: after 59 days
Description: SCID mice were injected with Saos-2-His-273 cells. […] Tumour volumes were measured once in three days for two months.
(§4) All animal studies were approved by the local animal ethical committee and animal care was in accordance with institutional guidelines. For toxicity assessment, 12 SCID mice (average weight 25 g) were divided in 4 groups. […] Control animals were injected with PBS. We measured weights of the mice for 1 month after the last injection. […] After 3 days the mice were divided into 4 groups. […] Injections were performed twice daily for 3 days. Tumour volume was measured during 2 months.
(§5) In the untreated control group, the average tumour volume after 59 days was 555.7±284 mm3 (means±SE, n=3).

[8] = Toxicity assessment in SCID mice; format: in vivo
Description: as §4, §5

[9] = system: p53-responsive lacZ reporter in A431 cells (endogenous His-273 mutant p53); test: p53-responsive lacZ reporter in A431 cells; format: cell-based, human; conditions: 50 μM for 20 hours
[10] = recombinant protein treated with compound
[11] = absence of mutant p53 expression
[12] = cells expressing mutant p53, PRIMA-1 25 μM, MIRA-1 10 μM

| Compound | growth suppression (Saos-2-His-273 cell line) | appearance of PAb240 epitope (unfolding) upon heating [1] | increase in PAb1620+ fraction [1, 10] | reduction in PAb240+ fraction [1, 10] | preservation of PAb 1620 epitope upon heating [1] | induction of MDM2 and p21 [2, 11] | induction of MDM2 and p21 [2, 12] | MDM2 and p21 protein levels [4] | other results |
| --- | --- | --- | --- | --- | --- | --- | --- | --- | --- |
| CCCOCN1C(=O)C=CC1=O [MIRA-1, 1-(propoxymethyl)-maleimide] | suppressed the growth of cells expressing mutant p53 but did not affect the growth of cells lacking p53 expression | able to prevent unfolding of p53 proteins | About 40% | −20% | preserve the conformation-dependent epitope for PAb 1620 antibody | did not cause any induction of MDM2 nor p21 | solid induction of both MDM2 and p21 | did not cause any significant changes | inhibition of colony formation (Saos-2 cells lacking p53): 48%; restoration of specific DNA binding [3]: able to restore the specific DNA binding of the GST-His-175 mutant p53 protein; reactivation of Phe-176 mutant DNA binding [5]: not reactivated; restoration of DNA binding of Trp-282 mutant p53 [6]: able to restore the sequence-specific DNA binding of the endogenous Trp-282 mutant p53 |
| O=C1C2CCN(CC2)C1(CO)CO [PRIMA-1, 2,2-bis(hydroxymethyl)-1-azabicyclo[2.2.2]octan-3-one] | suppressed the growth of cells expressing mutant p53 but did not affect the growth of cells lacking p53 expression | able to prevent unfolding of p53 proteins | 40% | corresponding decrease | preserve the conformation-dependent epitope for PAb 1620 antibody | did not cause any induction of MDM2 nor p21 | solid induction of both MDM2 and p21 | did not cause any significant changes | growth of cells (growth curves) (Saos-2-His-273 cell line; [11]): only caused a minor reduction in growth rate; growth of cells (growth curves) (Saos-2-His-273 cell line; cells expressing mutant p53): completely inhibited growth; average tumour volume ([7]; 20 mg/kg i.v. twice a day for three days): 53±48.5 mm3; average tumour volume ([7]; intratumour 20 mg/kg twice a day for three days): 5.3±2.7 mm3; average tumour volume ([7]; intravenous 100 mg/kg twice a day for three days): 11.7±8 mm3; DO-1+ fraction [1, 10]: remained unchanged; average weight of mice ([8]; 100 mg/kg i.v. daily for 5 days, after one month of observation): 20 ± 0.2 g; changes in behavior or weight ([8]; intravenous injections, compared with untreated control): did not cause any obvious changes in behavior or weight; lacZ reporter induction [9]: appearance of lacZ-positive cells |
